Data on ten molecules can be found in patent US20240124483A1, “Methods for the Treatment of Fibrotic Disease” (SHY Therapeutics, LLC, priority 2021, published 2024).

Broadly, the IC50 is the concentration at which inhibition is half-maximal.

Test [1] has as its target Cdc42 (Homo sapiens (Human), UniProt P60953). The test is described as follows: Cdc42 GTP Binding Domain Inhibition Assay. The note with it: read-out: Cdc42: % inh. On the procedure: (§1) The following method was developed as specific assay for cdc42 and Rheb proteins.
(§2) Buffer-I: • 25 mM Tris-HCl, pH 7.4 • 27 mM KCl • 137 mM NaCl • 1 mM MgCl2 • 1 mM DTT
(§3) Buffer-IL: • 50 mM Tris-HCl, pH 7.0 • 1 mM MgCl2 • 1 mM DTT
(§4) The small GTPases proteins cdc42 and Rheb were expressed as His-tagged proteins. For the assay, the cdc42 and Rheb purified small GTPases proteins were diluted in Buffer-I or Buffer-II to a final concentration of 10-30 μg/mL. 200 μL of each diluted protein was added to a nickel-coated 96-well plate and incubated overnight at […]. Then the protein solution was discarded and 200 μL of Buffer-I or Buffer-II was added to each well in the presence of 1% DMSO. Compounds to be tested were added to the protein-coated wells at final concentration of 20 μM, and incubated for 3 hours at room temperature with and without 10-30 μg/mL of Sos added to the final hour of the incubation. When performing IC50 measurements a serial dilution of all tested concentrations was added. Then Cy3-GTP or Cy5-GTP was added to each well to a final concentration of 100 nM. The labeled GTP was incubated for 45 minutes at room temperature. Following GTP incubation, wells were washed 3× in Buffer-I or Buffer-II and 200 μL of Buffer-I or Buffer-II was added to each well. Following washes, the amount of bound labeled-GTP was measured using a SpectraMax M3 (Molecular Devices).

Test [2] concerns the target Rheb (Homo sapiens (Human), UniProt Q15382). Briefly: Rheb GTP Binding Domain Inhibition Assay. The conditions noted are these: read-out: Rheb: % inh. On the procedure: as §1, §2, §3, §4
The subject of test [3] is Smad2/3 phosphorylation. The test is described as follows: Phospho-Smad2/3 Inhibition Assay in C2C12 (western blot). Format: cell-based. The note with it: Mus musculus; for IC50: C2C12, TGF-b1 stimulated. On the procedure:
(§5) Cell lines: Human tumor-derived pancreatic cancer cell line Panc-1 and mouse muscle myoblast C2C12 were purchased from American Type Culture Collection and grown in complete DMEM-High Glucose, supplemented with penicillin (100 U/mL), streptomycin (100 μg/mL), and 10% heat-inactivated FBS at 37° C. in a humidified incubator with 5% CO2.
Method: Cells were plated at 350000 cells/well density in a 12-well plate, allowed 3 hours to adhere to the plate, then starved in the appropriate medium in the presence of 0.5% FBS overnight. The small molecules to be tested were added to the cells in the final concentration of 10 μM in the presence of 0.3% DMSO for 3 hours incubation at 37° C. For IC50 value determination, serial dilutions of compounds were added to cells under the same conditions. Next, Panc-1 cells were stimulated with 10 ng/ml TGF-b1 for 1 hour, and C2C12 cells were stimulated with 10 ng/ml TGF-b1 for 20 minutes (recombinant human TGF-b1, R&D Systems). After stimulation cells were lysed with lysis buffer containing 1% Triton X-100, EDTA, and Halt™ Protease & Phosphatase Inhibitor Cocktail (Thermo Scientific). Protein concentration was assessed by BCA protein assay (Thermo Scientific). Phosphorylation level of Smad2/Smad3 was determined by western blot.
Western blot protocol: Equal amounts of protein (15-50 μg) were separated by SDS-PAGE and transferred to nitrocellulose membranes (Invitrogen by Thermo Fisher Scientific). The membrane was stained with Ponceau S Stain (Boston BioProducts) to verify uniform protein loading. Membranes were blocked with 10% milk and phosphorylation levels of Smad2/Smad3 were assessed by incubating overnight at 4° C. with the following antibodies: Phospho-Smad2 (Ser465/467) and Phosph-Smad3 (Ser423/425), both from Cell Signaling Technology. Then the membranes were incubated with HRP-conjugated secondary antibody (Jackson Immunoresearch, West Grove, PA). Bands were incubated in Amersham ECL Prime Western Blotting Detection Reagent (GE Healthcare) and visualized using the ChemiDoc MP imaging system (Bio-Rad).

Test [4] concerns MAPK p38. The test is described as follows: MAPK p38 Activation Assay in C2C12 (western blot). The note with it: at 10 μM. Format: cell-based, mouse. Further details: key: Y = yes; N = No. On the procedure:
as §5
Method: Cells were plated at 350000 cells/well density in a 12-well plate, allowed 3 hours to adhere to the plate, then starved in the appropriate medium in the presence of 0.5% FBS overnight. The small molecules to be tested were added to the cells in the final concentration of 10 μM in the presence of 0.3% DMSO for 3 hours incubation at 37° C. For IC50 value determination, serial dilutions of compounds were added to cells under the same conditions. […] Protein concentration was assessed by BCA protein assay (Thermo Scientific). Phosphorylation level of MAPK p38 was determined by western blot.
Western blot protocol: Equal amounts of protein (15-50 μg) were separated by SDS-PAGE and transferred to nitrocellulose membranes (Invitrogen by Thermo Fisher Scientific). […] Membranes were blocked with 10% milk and phosphorylation levels of Smad2/Smad3 were assessed by incubating overnight at 4° C. with the following antibody: Phospho-p38 MAPK (Thr180/Tyr182), from Cell Signaling Technology. […]
A general note: Immunoblotting shows a protein as a band on a membrane.

Sequence of Rheb (Q15382 whole entry, species assumed, the tested form may be a part): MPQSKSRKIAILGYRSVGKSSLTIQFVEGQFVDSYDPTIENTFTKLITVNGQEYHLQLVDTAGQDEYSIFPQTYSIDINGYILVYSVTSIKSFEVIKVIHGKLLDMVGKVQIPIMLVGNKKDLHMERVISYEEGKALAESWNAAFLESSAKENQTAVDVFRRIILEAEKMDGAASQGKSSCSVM
Sequence of Cdc42 (P60953 whole entry, species assumed, the tested form may be a part): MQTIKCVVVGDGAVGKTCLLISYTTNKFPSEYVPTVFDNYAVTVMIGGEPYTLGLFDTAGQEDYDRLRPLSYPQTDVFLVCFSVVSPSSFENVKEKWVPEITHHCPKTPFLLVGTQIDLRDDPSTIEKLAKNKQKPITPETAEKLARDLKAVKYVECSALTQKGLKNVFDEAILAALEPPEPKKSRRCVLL

`COc1cc(-c2sc3nc(-c4nccn4C)nc(N[C@@H]4CC[C@H](OC)C4)c3c2-c2ccccc2)ccn1` (racemic) [Compound 44, rac-N-((1R,3S)-3-Methoxycyclopentyl)-6-(2-methoxypyridin-4-yl)-2-(1-methyl-1H-imidazol-2-yl)-5-phenylthieno[2,3-d]pyrimidin-4-amine]: the results for the inhibition at 20 µM in test [1] and in test [2] were 1 to 25% and 26 to 45%, respectively.
As to `COc1cc(-c2sc3nc(-c4nccn4C)nc(N[C@@H]4CC[C@@H](OC)C4)c3c2-c2ccccc2)ccn1` (racemic) [Compound 47, N-((1R,3R)-3-Methoxycyclopentyl)-6-(2-methoxypyridin-4-yl)-2-(1-methyl-1H-imidazol-2-yl)-5-phenylthieno[2,3-d]pyrimidin-4-amine], the inhibition at 20 µM in test [1] lay in the range of 46 to 75%; in test [2] it was 76 to 100%.
`COCCNc1nc(-c2cn(C)cn2)nc2sc(-c3cccc(OC)c3Cl)c(-c3ccc(OC)cc3)c12` [Compound 8, 6-(2-Chloro-3-methoxyphenyl)-N-(2-methoxyethyl)-5-(4-methoxyphenyl)-2-(1-methyl-1H-imidazol-4-yl)thieno[2,3-d]pyrimidin-4-amine]: in test [3], the IC50 lay within 1 to 4.99 µM. For the same molecule, the “Activation of MAPK p38 in C2C12” value in test [4] is recorded as “Y”.
As to `COCCNc1nc(-c2nccn2C)nc2sc(-c3cccc(OC)c3Cl)c(-c3ccccc3)c12` [Compound 9, 6-(2-Chloro-3-methoxyphenyl)-N-(2-methoxyethyl)-2-(1-methyl-1H-imidazol-2-yl)-5-phenylthieno[2,3-d]pyrimidin-4-amine], in test [3] (10 μM, 3 hours, C2C12 stimulated with 10 ng/ml TGF-b1 for 20 minutes, read-out: % inh of Smad2/3 phosphorylation in C2C12), the inhibition at 10 µM lay in the range of 76 to 100%. Moreover, in test [3], the concentration for half-maximal inhibition (IC50) is 1 to 4.99 µM. Moreover, the “Activation of MAPK p38 in C2C12” value in test [4] was “Y”.
Regarding `COc1cccc(Nc2nc(-c3nccn3C)nc3sc(-c4ccn(C(C)C)n4)c(C)c23)c1` [Compound 17, 6-(1-Isopropyl-1H-pyrazol-3-yl)-N-(3-methoxyphenyl)-5-methyl-2-(1-methyl-1H-imidazol-2-yl)thieno[2,3-d]pyrimidin-4-amine], the 50% inhibitory concentration (IC50) in test [3] is 5 to 10 µM.
Same read-out and setting: the value for `COc1cccc(Nc2nc(-c3nccn3C)nc3sc(-c4ccn(C(C)C)n4)c(C)c23)n1` [Compound 18, 6-(1-Isopropyl-1H-pyrazol-3-yl)-N-(6-methoxypyridin-2-yl)-5-methyl-2-(1-methyl-1H-imidazol-2-yl)thieno[2,3-d]pyrimidin-4-amine] was 5 to 10 µM; that for `COc1cc(Nc2nc(-c3nccn3C)nc3sc(-c4ccn(C(C)C)n4)c(C)c23)ncn1` [Compound 19, 6-(1-Isopropyl-1H-pyrazol-3-yl)-N-(6-methoxypyrimidin-4-yl)-5-methyl-2-(1-methyl-1H-imidazol-2-yl)thieno[2,3-d]pyrimidin-4-amine] was more than 10 µM.
As to `COc1cccc(-c2sc3nc(-c4nccn4C)nc(N[C@H]4C[C@H](OC)C4)c3c2-c2ccccc2)c1F` [Compound 40, 6-(2-Fluoro-3-methoxyphenyl)-N-((1r,3r)-3-methoxycyclobutyl)-2-(1-methyl-1H-imidazol-2-yl)-5-phenylthieno[2,3-d]pyrimidin-4-amine], the inhibition at 20 µM in test [1] was 26 to 45%; in test [2] it was 76 to 100%.
Taken in the same sequence, the figures for `COc1nccc(-c2sc3nc(-c4nccn4C)nc(N[C@H]4C[C@H](OC)C4)c3c2-c2ccccc2)c1F` [Compound 45, 6-(3-Fluoro-2-methoxypyridin-4-yl)-N-((1r,3r)-3-methoxycyclobutyl)-2-(1-methyl-1H-imidazol-2-yl)-5-phenylthieno[2,3-d]pyrimidin-4-amine] were 46 to 75% and 76 to 100%.
The like results for `COc1cc(-c2sc3nc(-c4nccn4C)nc(N[C@H]4C[C@H](OC)C4)c3c2-c2ccccc2)ccn1` [Compound 46, N-((1r,3r)-3-Methoxycyclobutyl)-6-(2-methoxypyridin-4-yl)-2-(1-methyl-1H-imidazol-2-yl)-5-phenylthieno[2,3-d]pyrimidin-4-amine] were, in that order, 46 to 75% and 76 to 100%.
